{
  "source": "patent US20230158071A1",
  "about": "“TUMOR COMBINED IMMUNOTHERAPY” (CRAGE medical Co., Limited, priority 2018, published 2023)",
  "key": {"806-mCD28z-CAR-T cells": {"tested_on": "806-mCD28z-CAR-T cells", "test": "CCK8 proliferation assay, olaparib on CAR-T cells", "type": "cell-based, mouse", "experimental": "As an effective inhibitor of PARP1, olaparib may inhibit PARP1 to participate in DNA damage repair process. In mouse breast cancer cell lines and mouse T cells and CART cells, different levels of PARP1 expression are detected (FIG. 2B). Therefore, CCK8 proliferation assay is required to detect the effect of olaparib on proliferation of tumor cells and CART cells.\n806-m28Z CAR-T cells in Example 1 are taken to spread in a 96-well plate with 1×10^4 cells per well and 100 μl medium. Breast cancer cells E0771-EGFRvIII and 4T1-EGFRvIII are taken to spread in a 96-well plate with 1×10^4 cells per well and 100 μl medium. Different concentrations of olaparib are taken to add to the cells to make 10 concentration gradients (i.e., the treatment concentrations of olaparib are respectively 50 μM, 20 μM, 10 μM, 5 μM, 2.5 μM, 1 μM, 0.1 μM, 0.01 μM, 0.001 μM, 0 μg/ml). After 48 hours of drug treatment for cells of different groups, 10 μl of CCK8 substrate color reagent (Dojindo) is added to each well; after incubating for 1 hour at 37° C., the absorbance at 450 nm is measured by a microplate reader, calculating the cell viability respectively.\nThe formula for calculating the cell viability is as follows:\nCell viability (%)=[A (adding drug)−A (blank)]/[A (without adding drug)−A (blank)]"}, "E0771-EGFRvIII cells": {"tested_on": "E0771-EGFRvIII cells", "test": "LDH cytotoxicity assay, CAR-T killing of olaparib-treated E0771-EGFRvIII cells", "type": "cell-based, mouse", "experimental": "The experimental groups for incubating with cells that are positive for the antigen target comprises the following 4 groups: UTD group, 806-mCD28z-CAR-T group (or denoted as 806-28Z), olaparib pretreatment group, and olaparib combined treatment group;\nthe olaparib pretreatment group comprises: UTD+1 μM olaparib pretreatment group (or denoted as UTD+Olaparib 1 μM pretreatment), UTD+5 μM olaparib pretreatment group (or denoted as UTD+Olaparib 5 μM pretreatment), 806-mCD28z-CAR-T+1 μM olaparib pretreatment group (or denoted as 806-28Z+Olaparib 1 μM pretreatment). 806-mCD28z-CAR-T+5 μM olaparib pretreatment group (or denoted as 806-28Z+Olaparib 5 μM pretreatment); […]\nOlaparib pretreatment group: different concentrations of olaparib (1 μM, 5 μM) are added to the medium for culturing E0771-EGFRVIII or 4T1-EGFRvIII tumor cells respectively, culturing at 37° C. for 24 h, and then the cells are treated with trypsin and resuspended in fresh medium. The untreated mouse T cells and 806-mCD28z-CAR T cells in Example 1 are respectively taken to incubate with E0771-EGFRvIII or 4T1-EGFRVIII cells pretreated with different concentrations of olaparib at a ratio of 1:3, 1:1, and 3:1; 16 hours later, the secretion of LDH in the supernatant is detected by Cytox 96 Non-Radioactive Cytotoxicity Assay, then calculating the killing toxicity of 806-mCD28z CAR T cells to tumor cells pretreated with different concentrations of olaparib. […] Cytox 96 Non-Radioactive Cytotoxicity Assay (Promaga, REF: G1782); at the same time, the secretions of cytokines Granzyme B, IFN-γ, and IL-2 in the supernatant are detected by ELISA kit (Lianke Biotech Co. Ltd. CAT: 18^.22), for specific experimental procedures, referring to instructions of MouseGranzyme B, IFN-γ, IL-2 ELISA kit from Lianke Biotech Co, Ltd. […]"}},
  "data": [
    {"compound": "O=C(c1cc(Cc2n[nH]c(=O)c3ccccc23)ccc1F)N1CCN(C(=O)C2CC2)CC1", "note": "[olaparib]", "values": [
      {"measurement": "proliferation of 806-mCD28z-CAR-T cells", "setting": "806-mCD28z-CAR-T cells; 1 μM olaparib", "result": "not affected"},
      {"measurement": "inhibition rate of proliferation of 806-mCD28z-CAR-T cells", "setting": "806-mCD28z-CAR-T cells; 2.5 μM and higher concentration of olaparib, 48 hours, CCK8", "result": "~80", "unit": "%"},
      {"measurement": "concentration that may inhibit the growth of CAR-T cells", "setting": "806-mCD28z-CAR-T cells; in vitro", "result": "higher than 2.5 μM"},
      {"measurement": "proliferation of 806-mCD28z-CAR-T cells", "setting": "806-mCD28z-CAR-T cells; olaparib", "result": "inhibited"},
      {"measurement": "lethal effect on E0771-EGFRvIII cells compared with the CAR-T single treatment group", "setting": "E0771-EGFRvIII cells; 5 μM olaparib combined treatment group", "result": "higher synergistic lethal effect"},
      {"measurement": "promotion of the killing effect of CAR-T cells on E0771-EGFRvIII cells", "setting": "E0771-EGFRvIII cells; 5 μM olaparib pretreatment group, better than 5 μM combined treatment group", "result": "most significant"},
      {"measurement": "killing effect of CAR-T cells on E0771-EGFRvIII cells", "setting": "E0771-EGFRvIII cells; olaparib 1 μM or 5 μM, pretreatment or combined treatment, vs CAR-T alone, ratio 1:3, 1:1, 3:1, 16 hours, LDH", "result": "significantly improved"}
    ]}
  ]
}
